{
  "source": "patent US12637481B2",
  "about": "“Boronic acid derivatives and therapeutic uses thereof” (QPEX BIOPHARMA, INC., priority 2020, dated 2026)",
  "key": {"[1]": {"assay": "Dynamic vapor sorption (DVS), hygroscopicity", "type": "physicochemical", "details": "25° C., 5 to 95% RH", "protocol": "DVS analysis was carried out using a TA Instruments Q5000 Dynamic Vapor Sorption analyzer. The instrument was calibrated with standard weights and a sodium bromide standard for humidity. Approximately 20 mg of sample was loaded into a metal-coated quartz pan for analysis. The sample was analyzed at 25° C. with a maximum equilibration time of one hour in 10% relative humidity (RH) steps from 5 to 95% RH (adsorption cycle) and from 95 to 5% RH (desorption cycle). The movement from one step to the next occurred either after satisfying the equilibrium criterion of 0.01% weight change or, if the equilibrium criterion was not met, after one hour. The percent weight change values were calculated using Microsoft Excel®. The temperature for the DVS analysis can impact the outcome of the results."}, "[2]": {"assay": "Microsomal activation of prodrug, monkey liver microsomes", "type": "in vitro ADME", "details": "1 μM in monkey liver microsomes, room temperature, assayed for active drug by LC/MS/MS; read-out: Half-life monkey micorsomes", "protocol": "(§1) Serum activation: Compounds 1, 2, or II were solubilized in water and added to rat, dog, monkey, and human serum at a concentration of 50 μg/mL. The samples were incubated at room temperature for 1 hour then assayed for “active” drug content using an LC/MS/MS assay. Microsomal activation: Compounds 1, 2, or II were solubilized in water and added to rat, dog, monkey, and human liver microsomes at a concentration of 1 μM. The samples were incubated at room temperature for 1 hour then assayed for “active” drug content using an LC/MS/MS assay."}, "[3]": {"assay": "Permeability/transport", "type": "in vitro ADME"}, "[4]": {"assay": "Serum activation of prodrug, human serum", "type": "in vitro ADME", "details": "50 μg/mL in human serum, room temperature, 1 hour, assayed for active drug by LC/MS/MS", "protocol": "as §1"}, "[5]": {"assay": "Microsomal activation of prodrug, human liver microsomes", "type": "in vitro ADME", "details": "for half-life at 1 μM: 1 μM in human liver microsomes, room temperature, assayed for active drug by LC/MS/MS", "protocol": "as §1"}, "[6]": {"assay": "Serum activation of prodrug, dog serum", "type": "in vitro ADME", "details": "50 μg/mL in dog serum, room temperature, 1 hour, assayed for active drug by LC/MS/MS", "protocol": "as §1"}, "[7]": {"assay": "Crystallinity", "type": "physicochemical"}, "[8]": {"assay": "Microsomal activation of prodrug, rat liver microsomes", "type": "in vitro ADME", "details": "1 μM in rat liver microsomes, room temperature, assayed for active drug by LC/MS/MS", "protocol": "as §1"}, "[9]": {"assay": "Serum activation of prodrug, rat serum", "type": "in vitro ADME", "details": "50 μg/mL in rat serum, room temperature, 1 hour, assayed for active drug by LC/MS/MS", "protocol": "as §1"}, "[10]": {"assay": "Serum activation of prodrug, monkey serum", "type": "in vitro ADME", "details": "50 μg/mL in monkey serum, room temperature, 1 hour, assayed for active drug by LC/MS/MS", "protocol": "as §1"}, "[11]": {"assay": "Microsomal activation of prodrug, dog liver microsomes", "type": "in vitro ADME", "details": "1 μM in dog liver microsomes, room temperature, assayed for active drug by LC/MS/MS", "protocol": "as §1"}},
  "note": "Like-named read-outs stand apart in the source and are kept apart here.",
  "data": [
    {"smiles": "CC(C)C(=O)OCOC(=O)c1c(F)ccc2c1O[B-](O)(O)[C@@H]1C[C@H]21.[Na+]", "note": "[crystalline Form B of Compound II′]", "values": [
      {"measurement": "Hygroscopicity by dynamic vapor sorption (DVS)", "setting": "[1]", "value": "moderately hygroscopic"}
    ]},
    {"smiles": "CC(=O)OCOC(=O)c1c(F)ccc2c1OB(O)[C@@H]1C[C@H]21", "note": "[Compound 2]", "values": [
      {"measurement": "half-life at 1 μM", "setting": "[2]", "value": "3 ± 2", "unit": "min"},
      {"measurement": "Permeability/transport", "setting": "[3]", "value": "High"},
      {"measurement": "half-life at 50 μg/mL", "setting": "[4]", "value": "> 60", "unit": "min"},
      {"measurement": "half-life at 1 μM", "setting": "[5]", "value": "8 ± 1", "unit": "min"},
      {"measurement": "half-life at 50 μg/mL", "setting": "[6]", "value": "> 60", "unit": "min"},
      {"measurement": "Crystallinity", "setting": "[7]", "value": "not crystalline"},
      {"measurement": "Crystallinity", "setting": "[7]; listed as drawing 11", "value": "No"},
      {"measurement": "half-life at 1 μM", "setting": "[8]", "value": "3 ± 2", "unit": "min"},
      {"measurement": "half-life at 50 μg/mL", "setting": "[9]", "value": "> 60", "unit": "min"},
      {"measurement": "half-life at 50 μg/mL", "setting": "[10]", "value": "> 60", "unit": "min"}
    ]},
    {"smiles": "CC(C)C(=O)OCOC(=O)c1c(F)ccc2c1OB(O)[C@@H]1C[C@H]21", "note": "[Compound II, (isobutyryloxy)methyl (1aR,7bS)-5-fluoro-2-hydroxy-1,1a,2,7b-tetrahydrobenzo[e]cyclopropa[c][1,2]oxaborinine-4-carboxylate]", "values": [
      {"measurement": "half-life at 1 μM", "setting": "[2]", "value": "2 ± 1", "unit": "min"},
      {"measurement": "Permeability/transport", "setting": "[3]", "value": "High"},
      {"measurement": "half-life at 50 μg/mL", "setting": "[4]", "value": "> 60", "unit": "min"},
      {"measurement": "half-life at 1 μM", "setting": "[5]", "value": "9 ± 5", "unit": "min"},
      {"measurement": "Human microsome activation t1/2", "setting": "[5]; human liver microsomes, as repeated in Table 2", "value": "9 + 5 min"},
      {"measurement": "half-life at 50 μg/mL", "setting": "[6]", "value": "> 60", "unit": "min"},
      {"measurement": "Crystallinity", "setting": "[7]", "value": "Yes"},
      {"measurement": "half-life at 1 μM", "setting": "[8]", "value": "5 ± 3", "unit": "min"},
      {"measurement": "half-life at 50 μg/mL", "setting": "[9]", "value": "> 60", "unit": "min"},
      {"measurement": "half-life at 1 μM", "setting": "[11]", "value": "23 ± 2", "unit": "min"},
      {"measurement": "half-life at 50 μg/mL", "setting": "[10]", "value": "> 60", "unit": "min"}
    ]},
    {"smiles": "CC(C)C(=O)OCOC(=O)c1c(F)ccc2c1O[B-](O)(O)[C@@H]1C[C@H]21.[Na+]", "note": "[crystalline Form A of Compound II′]", "values": [
      {"measurement": "Hygroscopicity by dynamic vapor sorption (DVS)", "setting": "[1]", "value": "slightly hygroscopic"}
    ]},
    {"smiles": "CCCC(=O)OCOC(=O)c1c(F)ccc2c1OB(O)[C@@H]1C[C@H]21", "note": "[Compound 1]", "values": [
      {"measurement": "half-life at 1 μM", "setting": "[2]", "value": "2 ± 1", "unit": "min"},
      {"measurement": "Permeability/transport", "setting": "[3]", "value": "High"},
      {"measurement": "half-life at 50 μg/mL", "setting": "[4]", "value": "> 60", "unit": "min"},
      {"measurement": "half-life at 1 μM", "setting": "[5]", "value": "28 ± 2", "unit": "min"},
      {"measurement": "human microsomal activation, compared in words", "setting": "[5]; compared with Compound 2 or Compound II", "value": "significantly slower"},
      {"measurement": "half-life at 50 μg/mL", "setting": "[6]", "value": "> 60", "unit": "min"},
      {"measurement": "Crystallinity", "setting": "[7]", "value": "Yes"},
      {"measurement": "half-life at 1 μM", "setting": "[8]", "value": "3 ± 1", "unit": "min"},
      {"measurement": "half-life at 50 μg/mL", "setting": "[9]", "value": "> 60", "unit": "min"},
      {"measurement": "half-life at 1 μM", "setting": "[11]", "value": "11 ± 1", "unit": "min"},
      {"measurement": "half-life at 50 μg/mL", "setting": "[10]", "value": "> 60", "unit": "min"}
    ]}
  ]
}
